Activity calls are given as the source filed them. The rule behind the calls is not given here.
How the values were obtained:
[1] = Plasma concentration in Wistar rat at 10 mg/kg, po after 1 hr; format: ADME, organism-based; set-up: dose 10 mg/kg, route oral; details: read-out: Drug uptake
[2] = Permeability from basolateral to apical side of human Caco-2 cells; format: ADME, cell-based; details: read-out: permeability
Rattus norvegicus [3] = experiment: Increase of histamine release in rat frontal cortex at 0.3 to 3 mg/kg, sc measured up to 300 mins; format: functional, organism-based
[4] = Volume of distribution at steady state in BALB/c mouse at 1 mg/kg, iv and 10 mg/kg, po; format: ADME, organism-based; details: in vivo, read-out: Vdss
[5] = Half life in BALB/c mouse at 1 mg/kg, iv and 10 mg/kg, po; format: ADME, organism-based; details: in vivo
Rattus norvegicus [6] = experiment: Increase of wake duration in rat at 10 mg/kg, sc; format: functional, organism-based; set-up: dose 10 mg/kg
[7] = Half life in Sprague-Dawley rat at 1 mg/kg, iv and 10 mg/kg, po; format: ADME, organism-based; details: in vivo
[8] = Fraction unbound in rat plasma; format: ADME, cell-free
[9] = Solubility in water; format: physicochemical
[10] = Bioavailability in BALB/c mouse at 1 mg/kg, iv and 10 mg/kg, po; format: ADME, organism-based; details: in vivo
[11] = Drug level in Wistar rat brain at 10 mg/kg, po after 1 hr; format: ADME, organism-based; set-up: dose 10 mg/kg, route oral; details: read-out: Drug uptake
Cytochrome P450 3A4 = Cytochrome P450 3A4 (Homo sapiens, UniProt P08684); experiment: Inhibition of CYP3A4 at 10 uM; format: ADME
Rattus norvegicus [12] = experiment: Ex vivo receptor occupancy of histamine H3 receptor in Wistar rat brain at 3 mg/kg, po after 30 mins by [3H]R-alpha-methylhistamine bingind autoradiography; format: functional
hERG (KCNH2) = hERG (KCNH2) (Homo sapiens, UniProt Q12809); experiment: Displacement of radiolabeled astemizole from human ERG at 10 uM; details: probe radiolabeled astemizole
Brain = experiment: Drug level in rat brain at 3 mg/kg, sc; format: ADME, organism-based; set-up: dose 3 mg/kg, route subcutaneous; details: in vivo, read-out: Drug uptake
[13] = Bioavailability in Sprague-Dawley rat at 1 mg/kg, iv and 10 mg/kg, po; format: ADME, organism-based; details: in vivo
[14] = Volume of distribution at steady state in Beagle dog at 1 mg/kg, iv and 5 mg/kg, po; format: ADME, organism-based, Canis lupus familiaris; details: in vivo, read-out: Vdss
[15] = Clearance in Beagle dog at 1 mg/kg, iv and 5 mg/kg, po; format: ADME, organism-based, Canis lupus familiaris; details: in vivo
[16] = biological target: T1, Voltage-gated inwardly rectifying potassium channel KCNH2 (Homo sapiens, UniProt Q12809); experiment: Displacement of radiolabeled astemizole from human ERG
[17] = Half life in Beagle dog at 1 mg/kg, iv and 5 mg/kg, po; format: ADME, organism-based, Canis lupus familiaris; details: in vivo
Rattus norvegicus [18] = experiment: Ex vivo receptor occupancy of histamine H3 receptor in Wistar rat brain at 10 mg/kg, po after 1 hr by autoradiography; format: functional
[19] = Volume of distribution at steady state in Sprague-Dawley rat at 1 mg/kg, iv and 10 mg/kg, po; format: ADME, organism-based; details: in vivo, read-out: Vdss
[20] = Permeability from apical to basolateral side of human Caco-2 cells; format: ADME, cell-based; details: read-out: permeability
[21] = Metabolic stability in rat liver microsomes assessed as compound remaining after 30 mins; format: ADME, Microsome; details: read-out: Stability
[22] = Clearance in BALB/c mouse at 1 mg/kg, iv and 10 mg/kg, po; format: ADME, organism-based; details: in vivo
[23] = Plasma concentration in Wistar rat at 3 mg/kg, po after 30 mins; format: ADME, organism-based; set-up: dose 3 mg/kg, route oral; details: read-out: Drug uptake
[24] = Bioavailability in Beagle dog at 1 mg/kg, iv and 5 mg/kg, po; format: ADME, organism-based, Canis lupus familiaris; details: in vivo
Plasma = experiment: Plasma concentration in rat at 3 mg/kg, sc; format: ADME, organism-based; set-up: dose 3 mg/kg, route subcutaneous; details: in vivo, read-out: Drug uptake
[25] = Clearance in Sprague-Dawley rat at 1 mg/kg, iv and 10 mg/kg, po; format: ADME, organism-based; details: in vivo
[26] = biological target: T1, Voltage-gated inwardly rectifying potassium channel KCNH2; experiment: Inhibition of human ERG by patch clamp technique
Cytochrome P450 2C9 = Cytochrome P450 2C9 (Homo sapiens, UniProt P11712); experiment: Inhibition of CYP2C9 at 10 uM; format: ADME
Rattus norvegicus [27] = experiment: Increase of wake duration in rat at 10 mg/kg, s.c.
Cytochrome P450 2D6 = Cytochrome P450 2D6 (Homo sapiens, UniProt P10635); experiment: Inhibition of CYP2D6 at 10 uM; format: ADME
[28] = Solubility in simulated gastric fluid; format: physicochemical
[29] = Metabolic stability in human liver microsomes assessed as compound remaining after 30 mins; format: ADME, Microsome; details: read-out: Stability

T1 sequence (Q12809 whole entry): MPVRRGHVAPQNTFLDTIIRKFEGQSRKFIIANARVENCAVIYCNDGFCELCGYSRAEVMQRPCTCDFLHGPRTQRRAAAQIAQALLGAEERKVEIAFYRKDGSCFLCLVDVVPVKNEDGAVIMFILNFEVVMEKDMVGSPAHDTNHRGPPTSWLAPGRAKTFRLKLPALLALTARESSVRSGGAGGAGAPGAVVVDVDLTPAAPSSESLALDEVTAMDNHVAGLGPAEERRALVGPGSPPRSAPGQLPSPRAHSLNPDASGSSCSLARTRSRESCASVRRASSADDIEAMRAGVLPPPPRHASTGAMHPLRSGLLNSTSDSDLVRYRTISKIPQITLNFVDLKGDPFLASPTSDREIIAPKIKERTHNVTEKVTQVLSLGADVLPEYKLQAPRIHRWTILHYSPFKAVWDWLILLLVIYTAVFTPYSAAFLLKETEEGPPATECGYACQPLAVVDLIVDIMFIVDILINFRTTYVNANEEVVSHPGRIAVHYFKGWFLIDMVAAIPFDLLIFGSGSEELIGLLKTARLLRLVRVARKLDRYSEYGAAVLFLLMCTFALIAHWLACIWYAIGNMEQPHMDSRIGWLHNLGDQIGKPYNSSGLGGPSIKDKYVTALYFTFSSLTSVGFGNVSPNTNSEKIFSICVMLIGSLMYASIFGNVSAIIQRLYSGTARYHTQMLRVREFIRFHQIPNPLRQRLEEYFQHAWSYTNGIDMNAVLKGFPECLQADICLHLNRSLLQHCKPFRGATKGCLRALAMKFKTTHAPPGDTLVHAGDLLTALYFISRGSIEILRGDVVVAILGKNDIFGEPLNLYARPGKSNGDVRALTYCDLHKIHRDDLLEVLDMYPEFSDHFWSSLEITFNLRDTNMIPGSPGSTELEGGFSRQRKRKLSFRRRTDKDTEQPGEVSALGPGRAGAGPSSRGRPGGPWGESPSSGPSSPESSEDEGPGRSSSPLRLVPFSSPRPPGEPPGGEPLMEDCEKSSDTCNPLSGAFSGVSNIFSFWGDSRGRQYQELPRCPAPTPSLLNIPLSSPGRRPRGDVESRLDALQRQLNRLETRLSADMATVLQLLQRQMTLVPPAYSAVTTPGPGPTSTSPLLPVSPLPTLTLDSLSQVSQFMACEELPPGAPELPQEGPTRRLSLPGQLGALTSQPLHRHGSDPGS
Sequence of Cytochrome P450 2D6 (P10635 whole entry): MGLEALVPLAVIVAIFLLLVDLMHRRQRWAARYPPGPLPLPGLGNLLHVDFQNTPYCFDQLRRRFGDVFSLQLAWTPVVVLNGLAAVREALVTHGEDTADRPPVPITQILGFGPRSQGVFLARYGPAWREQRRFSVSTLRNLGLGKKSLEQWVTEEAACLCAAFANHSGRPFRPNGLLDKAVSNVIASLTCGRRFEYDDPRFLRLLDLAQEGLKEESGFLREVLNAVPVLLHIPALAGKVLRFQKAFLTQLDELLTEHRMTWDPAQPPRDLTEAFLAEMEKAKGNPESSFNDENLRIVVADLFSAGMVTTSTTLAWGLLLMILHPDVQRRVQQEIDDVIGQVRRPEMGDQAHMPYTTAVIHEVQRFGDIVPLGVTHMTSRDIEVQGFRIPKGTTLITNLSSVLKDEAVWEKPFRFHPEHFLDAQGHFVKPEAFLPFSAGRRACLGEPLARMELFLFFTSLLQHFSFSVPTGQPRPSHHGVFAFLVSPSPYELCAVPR
Sequence of hERG (KCNH2) (Q12809 whole entry): as the sequence (Q12809 whole entry) above
Sequence of Cytochrome P450 3A4 (P08684 whole entry): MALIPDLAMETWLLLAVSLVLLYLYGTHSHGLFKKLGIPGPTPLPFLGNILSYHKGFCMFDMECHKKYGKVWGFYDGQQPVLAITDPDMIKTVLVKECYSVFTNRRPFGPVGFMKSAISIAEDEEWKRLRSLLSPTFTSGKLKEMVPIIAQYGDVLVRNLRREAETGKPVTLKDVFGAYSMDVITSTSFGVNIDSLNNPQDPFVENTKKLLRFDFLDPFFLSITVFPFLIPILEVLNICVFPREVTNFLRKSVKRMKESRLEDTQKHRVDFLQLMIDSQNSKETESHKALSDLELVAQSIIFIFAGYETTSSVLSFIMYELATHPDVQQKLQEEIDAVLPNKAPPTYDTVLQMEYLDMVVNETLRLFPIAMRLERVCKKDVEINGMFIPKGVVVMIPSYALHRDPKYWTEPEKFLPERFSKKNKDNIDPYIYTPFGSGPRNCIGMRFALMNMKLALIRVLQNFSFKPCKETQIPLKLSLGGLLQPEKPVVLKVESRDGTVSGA
Sequence of Cytochrome P450 2C9 (P11712 whole entry): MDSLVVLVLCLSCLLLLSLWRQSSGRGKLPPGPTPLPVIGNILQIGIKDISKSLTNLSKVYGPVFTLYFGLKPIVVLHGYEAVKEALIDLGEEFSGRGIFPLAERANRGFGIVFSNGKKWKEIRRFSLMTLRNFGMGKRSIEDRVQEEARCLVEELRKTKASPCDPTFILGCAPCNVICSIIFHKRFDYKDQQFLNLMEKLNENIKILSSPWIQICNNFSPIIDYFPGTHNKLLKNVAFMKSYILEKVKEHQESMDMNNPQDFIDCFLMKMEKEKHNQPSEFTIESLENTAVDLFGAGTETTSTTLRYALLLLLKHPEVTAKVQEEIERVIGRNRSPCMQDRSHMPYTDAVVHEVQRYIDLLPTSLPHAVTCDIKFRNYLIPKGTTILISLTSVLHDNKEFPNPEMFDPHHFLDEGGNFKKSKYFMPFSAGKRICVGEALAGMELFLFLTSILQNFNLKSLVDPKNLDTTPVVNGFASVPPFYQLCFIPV

concentration at 1 h [1]: 1480 nM | Papp B→A [2]: 36 ×10⁻⁶ cm/s | Vd [4]: 8.7 L/kg | half-life [5]: 66 min | half-life [7]: 72 min | fraction unbound [8]: 0.15 | solubility [9]: > 5000 µg/mL | bioavailability [10]: 28% | concentration at 1 h [11]: 2650 nM | Activity (Cytochrome P450 3A4): Not Active | concentration (Brain): 956 nM | bioavailability [13]: 50% | Vd [14]: 7.2 L/kg | clearance [15]: 35 mL/min/kg | half-life [17]: 156 min | Vd [19]: 3.5 L/kg | Papp A→B [20]: 78 ×10⁻⁶ cm/s | remaining at 0.5 h [21]: 63% | clearance [22]: 94 mL/min/kg | concentration at 0.5 h [23]: 150 ng/mL | bioavailability [24]: 28% | concentration (Plasma): 257 nM | clearance [25]: 49 mL/min/kg | Activity (Cytochrome P450 2C9): Not Active | Activity (Cytochrome P450 2D6): Not Active | solubility [28]: > 5000 µg/mL | remaining at 0.5 h [29]: 87%
Structure (SMILES): O=C(c1ccc(Oc2ccc(F)cc2)nc1)N1CCCN(C2CCC2)CC1 [JNJ-39220675]
Activity (Rattus norvegicus [3]): Active | Activity (Rattus norvegicus [6]): Active | Activity (Rattus norvegicus [12]): 90% | inhibition at 10 µM (hERG (KCNH2)): 0% | IC50 [16]: > 10 µM | Activity (Rattus norvegicus [18]): 94% | IC50 [26]: 3.5 µM | Activity (Rattus norvegicus [27]): Active

Source: ChEMBL document CHEMBL1177792, “Pre-clinical characterization of aryloxypyridine amides as histamine H3 receptor antagonists: identification of candidates for clinical development” (Bioorg Med Chem Lett, 2010)
